Data published in publication PMC8003416, “Modulation of Human Phenylalanine Hydroxylase by 3-Hydroxyquinolin-2(1H)-One Derivatives” (Biomolecules, 2021).

T1: human phenylalanine hydroxylase (hPAH) (Homo sapiens, UniProt P00439)
T1 construct: Recombinant full-length wild-type (WT) hPAH was expressed in E. coli Top10 cells in fusion with a hexa-histidyl peptide; made in house; host or cells: E. coli Top10
T1 sequence (P00439 1-452): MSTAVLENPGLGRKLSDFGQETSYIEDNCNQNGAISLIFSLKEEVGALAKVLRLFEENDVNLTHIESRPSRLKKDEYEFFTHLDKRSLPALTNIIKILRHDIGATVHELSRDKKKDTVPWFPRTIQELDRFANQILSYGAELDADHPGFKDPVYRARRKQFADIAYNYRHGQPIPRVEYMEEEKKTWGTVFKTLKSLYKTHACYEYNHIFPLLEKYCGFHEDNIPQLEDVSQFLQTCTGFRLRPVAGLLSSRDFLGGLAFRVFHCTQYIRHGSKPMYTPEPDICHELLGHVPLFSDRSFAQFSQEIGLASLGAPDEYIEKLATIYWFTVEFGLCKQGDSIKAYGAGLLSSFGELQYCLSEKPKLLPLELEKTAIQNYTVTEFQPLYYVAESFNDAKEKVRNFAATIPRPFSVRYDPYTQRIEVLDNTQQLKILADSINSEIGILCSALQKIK

B1: Recombinant full-length wild-type human phenylalanine hydroxylase (enzyme, UniProt P00439 1-452, looked up)
chain: T1 sequence (P00439 1-452)
notes: human phenylalanine hydroxylase (hPAH; EC 1.14.16.1), full-length wild type, expressed in fusion with a hexa-histidyl peptide; It gives a subunit mass of 55 kDa and an expected tetramer mass of 223 kDa; Non-heme iron sits in the catalytic site; also called hPAH; PAH; source: E. coli Top10, purified (IMAC on Ni-NTA agarose, then SEC to isolate tetramers)

Columns and labels:
[1] = biological target: T1, human phenylalanine hydroxylase (hPAH); experiment: Differential scanning fluorimetry (thermal denaturation); assay type: binding; settings: for Tm1 (regulatory domain) / Tm2 (catalytic domain): 100 μM compound in 1% DMSO; for Tm1 (regulatory domain): control 43.4 ± 0.6; for Tm2 (catalytic domain): control 53.5 ± 0.4; for ΔTm1 (regulatory domain) / ΔTm2 (catalytic domain): 100 μM compound vs 1% DMSO control, * S.D. < 0.01; for effect on thermal stability of regulatory and catalytic domains (|ΔTm| ≥ 2 °C): 100 μM compound
Procedure: Thermal denaturation profiles of recombinant hPAH were obtained by differential scanning fluorimetry (DSF) in a C1000 Touch thermal cycler equipped with a CFX96 optical reaction module (Bio-Rad; Hercules, CA, USA) as previously described. Briefly, DSF assays (n = 3) were performed using 100 μg/mL hPAH tetramers (final concentration of 0.45 μM of tetramer), SYPRO Orange (5000-fold commercially available stock solution; Invitrogen; Carlsbad, CA, USA) at a 2.5-x final concentration and ramping the temperature from 20 to 90 °C, at 1 °C/min. Fluorescence data were acquired using the FRET channel. Data were processed using CFX Manager Software V3.0 (Bio-Rad) and the GraphPad Prism. Temperature scan curves were fitted to a biphasic dose–response function and the Tm values were obtained from the midpoint of the first (Tm1) and second transitions (Tm2) corresponding, respectively, to the thermal denaturation of the regulatory and catalytic domains. The Tm values in the presence of 3HQ were compared to those obtained in the presence of 1% DMSO (vehicle control) and a change in the Tm was considered significant when the |ΔTm| ≥ 2 °C [22].

[2] = biological target: T1, human phenylalanine hydroxylase (hPAH); experiment: hPAH enzymatic activity assay (NA, 3HQ-A and Phe/3HQ-A conditions); assay type: biochemical; settings: 100 μM compound; for hPAH activity vs respective control: all three conditions (NA, 3HQ-A, Phe/3HQ-A); for fold activation by L-Phe (Phe/3HQ-A vs. 3HQ-A): 100 μM L-Phe
Procedure: The hPAH activity was measured essentially as previously described. Briefly, the enzymatic reaction was performed in a 200 μL final volume, containing 250 mM Na-HEPES, pH 7, 0.1 mg/mL catalase (Sigma-Aldrich; St. Louis, MO, USA), 5 μg (final concentration of 0.112 μM of tetramer) of recombinant hPAH tetramers and 100 μM (NH4)2Fe(II)SO4. Using 100 μM L-Phe and 100 μM of tested compound, three experimental conditions were used to study the compounds’ modulatory effect, namely: non activated (NA), 3HQ-activated (3HQ-A) and substrate/3HQ-activated (Phe/3HQ-A) (Supplementary Figure S3). The reaction was started by addition of 75 μM BH4 (Schircks Laboratories; Bauma, Switzerland) prepared in 5 mM ascorbic acid. In the NA assay, the L-Phe substrate and tested compounds were added together with 75 µM BH4 at the start of the hydroxylation reaction. In the 3HQ-A condition, hPAH was pre-incubated with the tested compound for 4 min at 25 °C and the reaction was started by the addition of BH4 together with L-Phe. In the Phe/3HQ-A condition, hPAH was pre-incubated simultaneously with L-Phe and the tested compound (4 min, 25 °C). Appropriate control reactions were performed where the compounds were omitted and 1% DMSO was used. Kinetic parameters were determined using variable concentrations of L-Phe (25 to 2500 μM) and fixed concentrations of BH4 (75 μM) and tested compound (100 μM). After a 1-min incubation, the reaction was stopped, and the amount of L-Tyr produced was quantified by HPLC as previously described. The specific hPAH enzymatic activity is expressed as nmol of L-Tyr produced during 1 min per mg of protein (nmol L-Tyr.min^−1.mg^−1). The steady-state kinetic data were analyzed by nonlinear regression analysis using GraphPad Prism (La Jolla, CA, USA). Data was fitted to the modified Hill equation accounting for cooperative substrate binding as well as substrate inhibition (Equation (1)), to the modified Michaelis–Menten equation which accounts for substrate inhibition (Equation (2)) and to the non-modified Michaelis–Menten equation:v = (Vmax + Vi ([S]^x/Ki^x))/(1 + (K^h/[S]^h) + ([S]^x/Ki^x))(1) v = (Vmax [S])/(Km + [S](1 + [S]/Ki))(2)

[3] = biological target: hPAH; set-up: method as in PMID 9843368; settings: ref [36]; read-out: KD (high affinity binding to hPAH); cited from earlier work
[4] = biological target: the molecule itself; experiment: SEC; HiLoad Superdex 200 HR column (1.6 x 60 cm), 20 mM Na-HEPES, 200 mM NaCl, pH 7.0, 0.7 mL/min, 4 °C; preparative isolation of the oligomeric form after affinity purification

Molecule	Tm1 (regulatory domain) [1] [°C]	Tm2 (catalytic domain) [1] [°C]	ΔTm1 (regulatory domain) [1]	ΔTm2 (catalytic domain) [1]	hPAH activity vs respective control [2]	effect on thermal stability of regulatory and catalytic domains (|ΔTm| ≥ 2 °C) [1]	fold enzyme activation by compound (3HQ-A vs. NA) [2]	fold activation by L-Phe (Phe/3HQ-A vs. 3HQ-A) [2]	remaining activity at 100 µM ([2]; NA (non-activated) condition, read-out: hPAH residual activity vs control) [%]	Kd [3] [nM]	stoichiometry N [4]
CCOC(=O)[C@H](Cc1ccccc1)NC(=O)c1c(O)c(=O)[nH]c2ccccc12 [Compound 1]	39.4 ± 1.0	55.9 ± 0.2	-3.9 ± 0.10 °C	+2.4 ± 0.01 °C	high decreases in enzyme activity	–	–	–	–	–	–
CCOC(=O)[C@H](Cc1ccccc1)NC(=O)c1c(O)c(=O)[nH]c2ccc(Cl)cc12 [Compound 2]	35.6 ± 0.2	43.0 ± 0.4	-7.8 ± 0.04 °C	-10.5 ± 0.11 °C	high decreases in enzyme activity	destabilized the regulatory and catalytic domains	–	–	–	–	–
CCOC(=O)[C@H](Cc1ccccc1)NC(=O)c1c(O)c(=O)n(Cc2ccccc2)c2ccc(OC(F)(F)F)cc12 [Compound 4]	37.8 ± 1.9	42.7 ± 0.3	-5.6 ± 0.28 °C	-10.8 ± 0.08 °C	high decreases in enzyme activity	destabilized the regulatory and catalytic domains	–	–	–	–	–
O=C(Nc1ccccc1)c1c(O)c(=O)[nH]c2ccc(OC(F)(F)F)cc12 [Compound 5]	38.7 ± 0.2	42.3 ± 0.2	-4.7 ± 0.02 °C	-11.2 ± 0.05 °C	–	destabilized the regulatory and catalytic domains	–	–	–	–	–
O=C(NCc1ccccc1)c1c(O)c(=O)[nH]c2ccc(OC(F)(F)F)cc12 [Compound 6]	42.5 ± 0.2	53.0 ± 0.1	-0.9 ± 0.01 °C	-0.5 ± 0.01 °C	–	–	–	–	–	–	–
CN(Cc1ccccc1)C(=O)c1c(O)c(=O)[nH]c2ccc(OC(F)(F)F)cc12 [Compound 7]	43.3 ± 0.1	53.7 ± 0.1	–	+0.2 ± 0.01 °C	–	–	–	–	–	–	–
COC(=O)[C@H](CC(C)C)NC(=O)c1c(O)c(=O)[nH]c2ccc(OC(F)(F)F)cc12 [Compound 10]	43.1 ± 0.5	53.4 ± 0.2	-0.3 ± 0.01 °C	–	–	–	0.9 fold	1.4 fold	68	–	–
O=C(CNC(=O)c1c(O)c(=O)[nH]c2ccc(OC(F)(F)F)cc12)OCc1ccccc1 [Compound 12]	43.8 ± 0.1	53.1 ± 0.1	0.4 ± 0.01 °C	-0.4 ± 0.01 °C	–	–	0.6 fold	allowing substrate activation	–	–	–
CCOC(=O)CNC(=O)c1c(O)c(=O)n(Cc2ccccc2)c2ccccc12 [Compound 13]	44.6 ± 0.4	53.5 ± 0.1	+1.2 ± 0.01 °C	+0.1 ± 0.01 °C	–	–	decreased enzyme activity	–	–	–	–
O=C(NCc1ccccc1)c1c(O)c(=O)n(Cc2ccccc2)c2ccccc12 [Compound 14]	44.8 ± 0.1	53.5 ± 0.1	+1.4 ± 0.01 °C	+0.1 ± 0.01 °C	–	–	–	did not allow substrate activation	–	–	–
O=C(c1c(O)c(=O)[nH]c2ccc(OC(F)(F)F)cc12)N1CCCC1 [Compound 15]	44.5 ± 0.8	53.3 ± 0.3	+1.1 ± 0.02 °C	-0.2 ± 0.01 °C	–	–	–	–	–	–	–
O=C(c1c(O)c(=O)[nH]c2ccc(OC(F)(F)F)cc12)N1CCCCC1 [Compound 16]	45.0 ± 1.9	53.2 ± 0.8	+1.7 ± 0.07 °C	-0.3 ± 0.01 °C	–	–	–	–	–	–	–
CC(C)(C)OC(=O)c1c(O)c(=O)[nH]c2ccc(OC(F)(F)F)cc12 [Compound 17]	44.6 ± 0.2	53.7 ± 0.2	+1.2 ± 0.01 °C	+0.2 ± 0.01 °C	–	–	–	–	–	–	–
CC(OC(=O)c1c(O)c(=O)[nH]c2ccc(OC(F)(F)F)cc12)c1ccccc1 (stereo not shown) [Compound 18]	40.0 ± 1.0	44.0 ± 1.4	–	-9.6 ± 0.31 °C	–	destabilized the regulatory and catalytic domains	–	–	–	–	–
CC(CCc1ccccc1)OC(=O)c1c(O)c(=O)[nH]c2ccc(OC(F)(F)F)cc12 (stereo not shown) [Compound 19]	33.0 ± 0.3	35.5 ± 0.1	-10.4 ± 0.09 °C	–	–	destabilized the regulatory and catalytic domains	–	–	–	–	–
O=C(c1ccccc1)c1c(O)c(=O)[nH]c2ccc(OC(F)(F)F)cc12 [Compound 20]	44.2 ± 0.1	53.8 ± 0.1	+0.8± 0.01 °C	+0.31± 0.01 °C	–	–	–	–	–	–	–
CNC[C@H](O)c1ccc(O)c(O)c1 [adrenaline]	–	–	–	–	–	–	–	–	–	< 1000	–
NCCc1ccc(O)c(O)c1 [dopamine]	–	–	–	–	–	–	–	–	–	< 1000	–
NC[C@H](O)c1ccc(O)c(O)c1 [noradrenaline]	–	–	–	–	–	–	–	–	–	< 1000	–
B1	–	–	–	–	–	–	–	–	–	–	4
